Tests used:
U87MG glioma cells [1] = assay: U87MG migration assay; format: cell-based, human
CD73 [2] = assay: CD73 protein expression in U87MG after silencing; format: cell-based, human
Description: (§1) The siRNA-CD73-441 sequence to silence human CD73 was evaluated for its efficiency.

U87MG glioma cells [3] = assay: U87MG cell proliferation by counting in Neubauer chamber; format: cell-based, human
Description: To assess the impact of CD73 silencing on U87MG glioma cell proliferation in culture, cells were silenced using the siRNA-CD73-441 sequence and counted using a Neubauer chamber.

CD73 [4] = assay: CD73 enzymatic activity in U87MG after silencing; format: cell-based, human
Description: as §1

[5] = molecular target: T1, ecto-5′-nucleotidase/CD73 (Rattus norvegicus, UniProt P21588); assay: ecto-5′-nucleotidase/CD73 enzymatic activity (AMP hydrolysis, malachite green) in C6 glioma; format: cell-based, Rattus norvergicus; conditions: for reduction of AMPase activity: C6 glioma cells silenced with NE/siRNA-CD73 complexes; for reduction of AMP hydrolysis: C6 glioma
T1 construct: endogenous in cells; host or cells: C6 glioma cells (rat)
T1 sequence (P21588 29-551): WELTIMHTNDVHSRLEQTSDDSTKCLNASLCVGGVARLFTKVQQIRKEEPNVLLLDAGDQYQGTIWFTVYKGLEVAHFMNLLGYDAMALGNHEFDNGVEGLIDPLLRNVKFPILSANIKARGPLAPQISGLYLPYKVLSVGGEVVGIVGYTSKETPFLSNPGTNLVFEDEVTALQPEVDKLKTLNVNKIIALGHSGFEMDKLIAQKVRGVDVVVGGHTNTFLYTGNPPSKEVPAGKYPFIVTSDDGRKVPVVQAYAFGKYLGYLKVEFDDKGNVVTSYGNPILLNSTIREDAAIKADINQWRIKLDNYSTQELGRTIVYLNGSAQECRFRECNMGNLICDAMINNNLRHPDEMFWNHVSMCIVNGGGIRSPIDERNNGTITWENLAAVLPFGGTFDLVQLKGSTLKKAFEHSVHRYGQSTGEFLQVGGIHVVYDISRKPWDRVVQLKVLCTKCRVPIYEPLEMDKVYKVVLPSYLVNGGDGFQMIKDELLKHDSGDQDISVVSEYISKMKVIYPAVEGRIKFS
Description: (§2) After treatment with AMPCP, the medium was removed, the cells were washed with PBS buffer solution (phosphate buffered saline, solution containing NaCl and NaHPO4), trypsinized with 200 μL of 0.25% trypsin solution and counted in a newbauer chamber. Once the cells were treated, enzyme activity, cell viability and immunocytochemistry assays were performed for CD73, in order to determine the reliability of the tests with the NE/siRNA or Lipofectamine®/siRNA complexes. The enzymatic activity of C6 cells was determined in an incubation medium (2 mM MgCl2, 120 mM NaCl, 5 mM KCl, 10 mM glucose, 20 mM HEPES [pH 7.4], and 2 mM AMP [adenosine monophosphate]) at 37° C. for 10 min, where the inorganic phosphate released by the action of CD73 was measured and the protein concentration was evaluated by the methods of malachite green and Coomassie Blue, respectively. Specific activity was expressed as μmol Pi released/min/mg protein.
Thus, it was evaluated how much the selective ecto-5′nucleotidase/CD73 inhibitor, AMPCP, could affect the proliferation of C6 glioma cells. The cells were exposed to increasing concentrations of AMPCP (1, 10 and 100 μM) and after 48 h cell proliferation was determined by counting in a newbauer chamber. In parallel, the activity of the enzyme ecto-5′nucleotidase/CD73 was analyzed by measuring the hydrolysis of AMP to adenosine (ADO) using the malachite green method.
For this purpose, specific siRNA-CD73 sequences were developed (siRNA-CD73-961 and siRNA-CD73-980; Table 1) and their functionality/specificity was assessed by transfecting C6 cells using Lipofectamine® according to the manufacturer's instructions. After 48 h of transfection, CD73 expression and enzymatic activity were evaluated by immunocytochemistry and AMP hydrolysis, respectively.
After the physical-chemical characterization and the optimization of the transfection, the effectiveness of the NE/siRNA-CD73-961 and NE/siRNA-CD73-980 complexes in silencing CD73 in C6 glioma was analyzed through immunocytochemical and AMP hydrolysis experiments.

C6 glioma cells = assay: C6 glioma cell proliferation by counting in newbauer chamber; format: cell-based, rat; conditions: 100 μM, 48 h, compared to the control
Description: Primary astrocyte cultures were prepared from scratch. The cortex of newborn Wistar rats (1-2 days old) were removed and mechanically dissociated in a balanced saline solution free of Ca^+2 and Mg^+2 (pH 7.4), containing 137 mM NaCl, 5, 36 mM KCl, 0.27 mM Na2HPO4, 1.1 mM KH2PO4, and 6.1 mM glucose. After centrifugation at 1000 g for 5 min, the pellet was resuspended in culture medium (pH 7.6) containing […], 8.39 mM of HEPES buffer (4-(2-hydroxyethyl)-1-acid piperazine ethanesulfonic) (pH 7.6), 23.8 mM NaHCO3, 0.1% fungizone® (Amphotericin B, antifungal), 0.032% antibiotic garamycin and 10% FBS. […]
as §2, with “Once the cells were treated, enzyme activity, cell viability and immunocytochemistry assays were performed for CD73, in order to determine the reliability of the tests with the NE/siRNA or Lipofectamine®/siRNA complexes.” left out, “protein. […]” for “protein.”

U87MG glioma cells [6] = assay: U87MG cell viability with temozolomide after CD73 silencing; format: cell-based; conditions: Homo sapiens, U-87 MG, U87MG previously silenced for CD73 with siRNA-CD73-441, read-out: reduction of cell viability
Description: The participation of CD73 in chemoresistance was also investigated (FIG. 13). U87MG glioma cells were treated with temozolomide (100 μM) alone or in combination with siRNA-CD73-441. Temozolomide reduced cell viability by an average of 20% in glioma previously silenced for CD73.

Compound: siRNA-CD73-441: siRNA sequence to silence human CD73, SEQ ID No: 3, Table 1 (GGGGCCACUAGCAUCUCAAAUUUGAGAUGCUAGUGGCCCCUU; listed as RNA, chemistry not given here)
- glioma cell migration (U87MG glioma cells [1]; U87MG, CD73 silencing): impaired glioma cell migration
- CD73 protein expression (CD73 [2]): efficient in decreasing
- inhibition of U87MG cell proliferation (U87MG glioma cells [3]; CD73 silencing): ~ 40%
- decrease of CD73 enzymatic activity (CD73 [4]): ~ 90%

Compound: siRNA-CD73-980: interference RNA sequence for CD73 (gene ID: 58813, Rattus norvergicus), SEQ ID No: 2, Table 1 (ACCAGUGGAGGAUAAAAUUAGAAUUUUAUCCUCCACUGGUUA; listed as RNA, chemistry not given here)
- reduction of AMPase activity [5]: 63%

Compound: Nc1ncnc2c1ncn2[C@@H]1O[C@H](COP(=O)(O)CP(=O)(O)O)[C@@H](O)[C@H]1O [AMPCP, adenosine 5′-(α, βmethylene) -diphosphate]
- reduction of AMP hydrolysis ([5]; 10 μM): 40%
- reduction of AMP hydrolysis ([5]; 100 μM): 50%
- decrease in cell proliferation (C6 glioma cells): 30%

Compound: Cn1nnc2c(C(N)=O)ncn2c1=O [Temozolomide, temozolomide]
- cytotoxicity at 100 µM (U87MG glioma cells [6]): 20%

Compound: siRNA-CD73-961: interference RNA sequence for CD73 (gene ID: 58813, Rattus norvergicus), SEQ ID No: 1, Table 1 (GCCAUCAAAGCAGACAUUAACUAAUGUCUGCUUUGAUGGCUG; listed as RNA, chemistry not given here)
- reduction of AMPase activity [5]: 70%

Compound: Nc1ncnc2c1ncn2[C@@H]1O[C@H](CO)[C@@H](O)[C@H]1O [adenosine]
- migration of U87MG glioma cells (U87MG glioma cells [1]; 24 hours of analysis): induced a sustained migration
- migratory potential of CD73-silenced glioblastoma cells (U87MG glioma cells [1]; adenosine treatment of cells silenced with siRNA-CD73-441): promoted recovery of the migratory potential
- proliferation of CD73-silenced U87MG cells (U87MG glioma cells [3]; ADO treatment of cells silenced with siRNA-CD73-441): restored proliferation

From patent US12708671B2, “Nanometric pharmaceutical composition in the form of liposomes or nanoemulsion containing specific sequences of interference RNA” (UNIVERSIDADE FEDERAL DO RIO GRANDE DO SUL, priority 2019, dated 2026)
